In patent US20210346359A1, “Use of CFTR Modulators For Treating Cerebrovascular Conditions” (Qanatpharma AG, priority 2018, published 2021):
“Also recorded” adds a separate entry of the source.

Legend:
human CFTR mRNA = assay: Quantitative PCR of CFTR mRNA in baby hamster kidney fibroblast cells stably expressing human CFTR; assay type: cell-based; details: 6 μmol/L, 24 h
Procedure: Procedures for isolating and culturing mesenteric artery smooth muscle cells were carried out as described in (10). Briefly, mesenteric artery segments were isolated, cut into small pieces and digested with trypsin, collagenase and elastase. The resulting cell suspension was washed several times in phosphate-buffered saline and plated in Dulbecco's Modified Eagle Medium (DMEM) culture media containing 10% fetal bovine serum and 1% penicillin-streptomycin. Cell cultures were maintained at 37° C. with 5% CO2 and split at 106 cells seeding density. […]
Resistance artery RNA was isolated with Norgen Biotek (Thorold, Canada) “Total RNA Purification Micro” spin columns, using the proteinase K digestion and DNA removal procedures, as directed by the manufacturer's instructions. The eluted RNA was quantified with an Agilent Technologies RNA 6000 Pico Kit and Bioanalyzer; the analysis confirmed that high-quality RNA was retrieved from the artery tissue samples (RNA Integrity [RIN]: Cerebral=8.4±0.1, n=5; Cremaster=8.2±0.4, n=6). […]
Quantitative FOR was performed using an Applied Biosystems ViiA™ 7 Real Time FCR system and Power SYBR® Green FCR master mix (both distributed by lnvitrogen Life Technologies). […] Gene targets were assessed in triplicate, using 1 ng of cDNA generated from the reverse transcription; negative controls received water. […]

[1] = system: olfactory cerebral arteries; assay: Myogenic tone of isolated olfactory cerebral arteries after in vivo treatment; parameters: species or system mouse
Procedure: Induction of Subarachnoid Hemorrhage: A well-characterized model of experimental SAH (6) was used. Briefly, each mouse was anaesthetized (isoflurane) and its head was fixed in a stereotactic frame: a 7 mm incision was made along the midline of the anterior scalp and 0.9 mm hole drilled into the skull 4.5 mm anterior to the bregma. A spinal needle was advanced to the chiasmatic cistern: 80 μl of arterial blood was injected into the intracranial space over 10 seconds. […] Following injection, the scalp incision was closed. Buprenorphine (0.05 mg/kg; 0.5-1.0 ml volume) was administered twice/day (initiated immediately following the SAH surgical procedure). Sham-operated animals underwent an identical surgical procedure, with sterile saline injected instead of blood. Olfactory cerebral arteries were isolated at 2 days post-SAH induction.
Isolation and functional assessment of resistance arteries: Mouse olfactory (a first branch of the anterior cerebral artery) and PCAs were carefully dissected, cannulated onto micropipettes, stretched to their in vivo lengths and pressurized to 45 mmHg, as previously described (3,6); mouse skeletal muscle resistance arteries were dissected from the cremaster muscle, cannulated and pressurized to 60 mmHg. All functional experiments were conducted in 3-morpholinopropanesulfonic acid (MOPS) buffered saline at 37° C. with no perfusion. […]
Myogenic responses were elicited by step-wise 20 mmHg increases in transmural pressure from 20 mmHg to 80 mmHg (olfactory arteries) or 100 mmHg (posterior cerebral arteries and cremaster skeletal muscle resistance arteries). At each pressure step, vessel diameter (diaactive) was measured once a steady state was reached (5 min). Vessels requiring treatment (e.g., CFTR(inh)-172) were incubated with the reagent in MOPS for 30 min and myogenic responses were then assessed in the presence of that reagent. Following completion of all diaactive measurements, MOPS buffer was replaced with a Ca^2+-free version and maximal passive diameter (diamax) was recorded at each pressure step.
(§1) Myogenic tone was calculated as the percent constriction in relation to the maximal diameter at each respective transmural pressure: tone (% of diamax)=[(diamax−diaactive)/diamax]×100, where diaactive is the vessel diameter in MOPS containing Ca^2+ and diamax is the diameter in Ca^2+-free MOPS. Analyses of vasomotor responses to phenylephrine used the same calculation, only in this case, diaactive represents the vessel diameter at steady state following application of the given agent and diamax represents the maximal diameter measured under Ca^2+-free conditions.

[2] = system: olfactory cerebral arteries; assay: Phenylephrine responses of isolated olfactory cerebral arteries; assay type: in vivo, mouse; details: for phenylephrine dose-response relationship, SAH vs SAH+treatment: not normalized; for log EC50 of phenylephrine response: olfactory cerebral arteries, SAH+treatment group, log scale
Procedure: Isolation and functional assessment of resistance arteries: Mouse olfactory (a first branch of the anterior cerebral artery) and PCAs were carefully dissected, cannulated onto micropipettes, stretched to their in vivo lengths and pressurized to 45 mmHg, as previously described (3,6); mouse skeletal muscle resistance arteries were dissected from the cremaster muscle, cannulated and pressurized to 60 mmHg. All functional experiments were conducted in 3-morpholinopropanesulfonic acid (MOPS) buffered saline at 37° C. with no perfusion. Vasomotor responses to phenylephrine (5 μmol/L for posterior cerebral arteries, 10 μmol/L for cremaster skeletal muscle arteries) provided an assessment of vessel viability at the beginning and end of each experiment. Arteries failing to show ≥25% constriction to phenylephrine were excluded.
as §1

[3] = arteries from SAH mice, in vivo 3 mg/kg daily for 2 days
[4] = olfactory cerebral arteries from SAH mice, 3 mg/kg i.p. daily for 2 days, 3 mg/kg

SMILES | CFTR mRNA expression (human CFTR mRNA) | olfactory cerebral artery myogenic tone ([1]; arteries from CFTR knockout mice, in vivo 3 mg/kg daily for 2 days) | olfactory cerebral artery myogenic tone [1, 3] | olfactory cerebral artery myogenic tone ([1]; arteries from sham-operated mice, 3 mg/kg i.p. daily for 2 days, 3 mg/kg) | phenylephrine dose-response relationship ([2]; olfactory cerebral arteries from CFTR knockout mice, 3 mg/kg i.p. daily for 2 days, 3 mg/kg) | phenylephrine dose-response relationship normalized to basal tone, SAH vs SAH+C18 [2, 4] | phenylephrine dose-response relationship, SAH vs SAH+treatment [2, 4] | phenylephrine dose-response relationship ([2]; olfactory cerebral arteries from sham-operated mice, 3 mg/kg i.p. daily for 2 days, 3 mg/kg) | log EC50 of phenylephrine response [2]
O=C(Nc1ncc(C(c2ccccc2Cl)N2CCC(O)C2)s1)C1(c2ccc3c(c2)OCO3)CC1 (stereo not shown) [C18, 1-(benzo[d][1,3]dioxol-5-yl)-N-(5-((2-chlorophenyl)(3-hydroxypyrrolidin-1-yl)methyl)thiazol-2-yl)cyclopropanecarboxamide] | no affect; also recorded: does not influence | not susceptible; also recorded: not observed | normalizes; also recorded: reduces | does not affect; also recorded: does not alter | not affected; also recorded: does not alter | curves overlap; also recorded: minimal | expected baseline shift; also recorded: not statistically different | does not affect; also recorded: does not alter | −6.61±0.31
Cc1ccc(NC(=O)C2(c3ccc4c(c3)OC(F)(F)O4)CC2)nc1-c1cccc(C(=O)O)c1 [lumacaftor] | unaffected; also recorded: does not influence |  | normalizes; also recorded: reduces |  |  |  | does not affect; also recorded: does not alter |  | −5.90±0.18
